Patent US8530512B2, “Broad spectrum gram-positive antimicrobials and anthelmintics with efficacy against drug-resistant strains and Mycobacterium species” (priority 2004, dated 2013)
≈ marks a conversion by molar mass, not a printed value.

What was measured:
M. smegmatis = assay: MIC assay; format: cell-based; details: Mycolicibacterium smegmatis; per-compound listing, Example 6; read-out: MIC M. smegmatis
[1] = tested on: Staphylococcus aureus ATCC 29213; assay: microbe, parasite or virus in culture; format: cell-based; details: Staphylococcus aureus, ATCC29213; per-compound listing, Example 6; read-out: MIC S. aureus
[2] = tested on: Staphylococcus aureus MRSA MC-1; assay: microbe, parasite or virus in culture; format: cell-based; details: Staphylococcus aureus, MRSA, read-out: MIC MRSA
Streptococcus pyogenes = assay: microbe, parasite or virus in culture; format: cell-based; details: for MIC: Streptococcus pyogenes, per-compound listing, Example 6, read-out: MIC S. pyogenes; for MIC S. pyogenes, G+: Table 3
C. elegans = assay: motility assay; format: in vivo; set-up: key to Movement score, 1/1600 / Movement score, 1/800 / Movement score, 1/400 / Movement score, 1/200 / Movement score, 1/100: normal (−); slow (+); very slow (++); not motile/paralyzed (+++); details: for Movement score, 1/100: dilution 1/100 of stock (10.24 μg/μL; SK-03-92 1.024 μg/μL); for Movement score, 1/100 / Movement score, 1/200 / Movement score, 1/400 / Movement score, 1/800 / Movement score, 1/1600: Ive 1 ng/μL in all wells; for Movement score, 1/200: dilution 1/200 of stock (10.24 μg/μL; SK-03-92 1.024 μg/μL); for Movement score, 1/400: dilution 1/400 of stock (10.24 μg/μL; SK-03-92 1.024 μg/μL); for Movement score, 1/800: dilution 1/800 of stock (10.24 μg/μL; SK-03-92 1.024 μg/μL); for Movement score, 1/1600: dilution 1/1600 of stock (10.24 μg/μL; SK-03-92 1.024 μg/μL), overnight 20° C.
Bacillus cereus = assay: microbe, parasite or virus in culture; format: cell-based; details: for MIC: Bacillus cereus, per-compound listing, Example 6, read-out: MIC B. cereus; for MIC B. cereus, G+ (anthrax surrogate): Table 3
[3] = tested on: Enterococcus faecium VRE 1; assay: organism not typed; format: cell-based; details: for MIC E. faecium VRE 1, G+: Table 3; for MIC: read-out: MIC VRE
C. elegans L1 larvae = assay: developmental assay; format: in vivo; set-up: key to Developmental score, 1/1600 / Developmental score, 1/800 / Developmental score, 1/400 / Developmental score, 1/200 / Developmental score, 1/100: dead (+++); distressed (++); slightly delayed (+); the same as M9-only untreated wells (−); details: for Developmental score, 1/100: dilution 1/100; for Developmental score, 1/100 / Developmental score, 1/200 / Developmental score, 1/400 / Developmental score, 1/800 / Developmental score, 1/1600: after four days, Ive 1 ng/μL in each well; for Developmental score, 1/200: dilution 1/200; for Developmental score, 1/400: dilution 1/400; for Developmental score, 1/800: dilution 1/800; for Developmental score, 1/1600: dilution 1/1600

Compound: COc1cc(O)cc(/C=C/c2cccs2)c1 [CL-6, (E)-2-[2-(3-Hydroxy-5-methoxy)-vinyl]thiophene]
- MIC (M. smegmatis): 64 mg/L (≈ 276 µM)
- MIC [1]: 32 mg/L (≈ 138 µM)
- MIC [2]: 32 mg/L (≈ 138 µM)
- MIC (Streptococcus pyogenes): 32 mg/L (≈ 138 µM)
- MIC S. pyogenes, G+ (Streptococcus pyogenes): 32 mg/L (≈ 138 µM)
- Movement score, 1/100 (C. elegans): +++
- Movement score, 1/200 (C. elegans): +++
- Movement score, 1/400 (C. elegans): +++
- Movement score, 1/800 (C. elegans): −
- Movement score, 1/1600 (C. elegans): −
- MIC (Bacillus cereus): 32 mg/L (≈ 138 µM)
- MIC B. cereus, G+ (anthrax surrogate) (Bacillus cereus): 32 mg/L (≈ 138 µM)
- MIC E. faecium VRE 1, G+ [3]: 64 mg/L (≈ 276 µM)
- MIC [3]: 64 mg/L (≈ 276 µM)

Compound: COc1cc(O)cc(/C=C/SC2CCCCC2)c1 [SK-04-50]
- Developmental score, 1/100 (C. elegans L1 larvae): +++
- Developmental score, 1/200 (C. elegans L1 larvae): +
- Developmental score, 1/400 (C. elegans L1 larvae): −
- Developmental score, 1/800 (C. elegans L1 larvae): −
- Developmental score, 1/1600 (C. elegans L1 larvae): −
- Movement score, 1/100 (C. elegans): ++
- Movement score, 1/200 (C. elegans): +
- Movement score, 1/400 (C. elegans): +
- Movement score, 1/800 (C. elegans): +
- Movement score, 1/1600 (C. elegans): +

Compound: CCC(C)CS/C=C/c1cc(O)cc(OC)c1 (stereo not shown) [SK-05-22]
- MIC (M. smegmatis): 128 mg/L (≈ 507 µM)
- effect at the two highest dilutions (C. elegans L1 larvae): death or delays in development
- Developmental score, 1/100 (C. elegans L1 larvae): +++
- Developmental score, 1/200 (C. elegans L1 larvae): +++
- Developmental score, 1/400 (C. elegans L1 larvae): +++
- Developmental score, 1/800 (C. elegans L1 larvae): +
- Developmental score, 1/1600 (C. elegans L1 larvae): −
- MIC [1]: 16 mg/L (≈ 63.4 µM)
- Movement score, 1/100 (C. elegans): +++
- Movement score, 1/200 (C. elegans): +++
- Movement score, 1/400 (C. elegans): ++
- Movement score, 1/800 (C. elegans): +
- Movement score, 1/1600 (C. elegans): −
- MIC (Bacillus cereus): 16 mg/L (≈ 63.4 µM)

Compound: ivermectin [reference compound]
- Developmental score, 1/100 (C. elegans L1 larvae): +++
- Developmental score, 1/200 (C. elegans L1 larvae): +++
- Developmental score, 1/400 (C. elegans L1 larvae): +++
- Developmental score, 1/800 (C. elegans L1 larvae): ++
- Developmental score, 1/1600 (C. elegans L1 larvae): ++
- animals affected (C. elegans; 0.25 ng/μL, overnight): Over 40%
- animals paralyzed (C. elegans; 0.5 ng/μL): more than 90%
- paralysis (C. elegans; 0.5 ng/μl, FIG. 9): Most worms were paralyzed
- paralysis (C. elegans; 1 ng/μL): All worms were paralyzed
- Movement score, 1/100 (C. elegans): +++
- Movement score, 1/200 (C. elegans): +++
- Movement score, 1/400 (C. elegans): +++
- Movement score, 1/800 (C. elegans): +++
- Movement score, 1/1600 (C. elegans): +++
- lowest effective concentration (C. elegans; molar equivalent of 0.25 ng/μL): ~140 nM
- lowest effective concentration (C. elegans; overnight, soaking, mixed population): 0.25 ng/µL

Compound: COc1cc(O)cc(O/C=C/c2ccccc2)c1 [CL-2, Phenyl-E-(3-hydroxy-5methoxy)-styryl ether]
- MIC (M. smegmatis): 128 mg/L (≈ 528 µM)
- MIC [1]: 32 mg/L (≈ 132 µM)
- MIC [2]: 32 mg/L (≈ 132 µM)
- MIC (Streptococcus pyogenes): 16 mg/L (≈ 66 µM)
- MIC S. pyogenes, G+ (Streptococcus pyogenes): 16 mg/L (≈ 66 µM)
- Movement score, 1/100 (C. elegans): +++
- Movement score, 1/200 (C. elegans): +++
- Movement score, 1/400 (C. elegans): +++
- Movement score, 1/800 (C. elegans): −
- Movement score, 1/1600 (C. elegans): −
- MIC (Bacillus cereus): 64 mg/L (≈ 264 µM)
- MIC B. cereus, G+ (anthrax surrogate) (Bacillus cereus): 64 mg/L (≈ 264 µM)
- MIC E. faecium VRE 1, G+ [3]: 32 mg/L (≈ 132 µM)
- MIC [3]: 32 mg/L (≈ 132 µM)

Compound: COc1cc(O)cc(/C=C/Sc2cccc3ccccc23)c1 [SK-05-16]
- MIC (M. smegmatis): 128 mg/L (≈ 415 µM)
- Developmental score, 1/100 (C. elegans L1 larvae): ++
- Developmental score, 1/200 (C. elegans L1 larvae): −
- Developmental score, 1/400 (C. elegans L1 larvae): −
- Developmental score, 1/800 (C. elegans L1 larvae): −
- Developmental score, 1/1600 (C. elegans L1 larvae): −
- MIC [1]: 4 mg/L (≈ 13 µM)
- Movement score, 1/100 (C. elegans): ++
- Movement score, 1/200 (C. elegans): ++
- Movement score, 1/400 (C. elegans): ++
- Movement score, 1/800 (C. elegans): +
- Movement score, 1/1600 (C. elegans): −
- MIC (Bacillus cereus): 4 mg/L (≈ 13 µM)

Compound: COc1cc(O)cc(/C=C/Sc2ccccc2C(C)C)c1 [SK-05-01]
- MIC (M. smegmatis): 256 mg/L (≈ 852 µM)
- MIC [1]: 16 mg/L (≈ 53.3 µM)
- Movement score, 1/100 (C. elegans): +
- Movement score, 1/200 (C. elegans): −
- Movement score, 1/400 (C. elegans): −
- Movement score, 1/800 (C. elegans): −
- Movement score, 1/1600 (C. elegans): −
- MIC (Bacillus cereus): 16 mg/L (≈ 53.3 µM)

Compound: COc1cc(O)cc(/C=C/Sc2ccc3ccccc3c2)c1 [SK-05-17]
- MIC (M. smegmatis): 128 mg/L (≈ 415 µM)
- Developmental score, 1/100 (C. elegans L1 larvae): +++
- Developmental score, 1/200 (C. elegans L1 larvae): ++
- Developmental score, 1/400 (C. elegans L1 larvae): ++
- Developmental score, 1/800 (C. elegans L1 larvae): −
- Developmental score, 1/1600 (C. elegans L1 larvae): −
- MIC [1]: 4 mg/L (≈ 13 µM)
- Movement score, 1/100 (C. elegans): ++
- Movement score, 1/200 (C. elegans): ++
- Movement score, 1/400 (C. elegans): ++
- Movement score, 1/800 (C. elegans): ++
- Movement score, 1/1600 (C. elegans): ++
- effect on worms at the lowest concentration tested (most active) (C. elegans; lowest concentration tested): severe distress
- effect on worms at the lowest concentrations tested (C. elegans; lowest concentrations tested, at least triplicate): reduced motility, paralysis, or death
- MIC (Bacillus cereus): 4 mg/L (≈ 13 µM)

Compound: CCOC(=O)/C=C\Sc1nc2ccccc2s1 [SK-04-59F1]
- Movement score, 1/100 (C. elegans): −
- Movement score, 1/200 (C. elegans): −
- Movement score, 1/400 (C. elegans): −
- Movement score, 1/800 (C. elegans): −
- Movement score, 1/1600 (C. elegans): −
